Here are results for six compounds from US20230089867A1, “CYCLIC PENTAMER COMPOUNDS AS PROPROTEIN CONVERTASE SUBTILISIN/KEXIN TYPE 9 (PCSK9) INHIBITORS FOR THE TREATMENT OF METABOLIC DISORDER” (Novartis AG, priority 2018, published 2023).

Where two headings read alike, the source gives them in different places.

For data set [1] the following is noted: amide bond, 18-membered ring, HATU/HOAt/2,6-lutidine.
The conditions of data set [2]: amide bond, 18-membered ring, HATU/HOAt/2,6-lutidine, DCM, 45.0 °C.
Another data set deals with human PCSK9 (Homo sapiens, UniProt Q8NBP7). As to the kind of experiment: PCSK9 ligand binding TR-FRET assay (interference with binding of human PCSK9 to human LDLR). The conditions noted are these: for Max % inhibition: PCSK9 FRET assay, efficacy (Amax), 100% = 1 uM unlabeled human PCSK9, 0% = DMSO; for IC50: TR-FRET, human PCSK9 Alexa Fluor 647 / human LDLR extracellular domain-Europium Kryptate, read-out: PCSK9 FRET Assay IC50. In short, it runs like this: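 Threefold compound dilutions were pre-incubated 30 min with PCSK9, after which 4 nM Europium Kryptate-tagged human LDLR ectodomain was added for a further 2 h.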
Sequence of human PCSK9 (Q8NBP7 153-692): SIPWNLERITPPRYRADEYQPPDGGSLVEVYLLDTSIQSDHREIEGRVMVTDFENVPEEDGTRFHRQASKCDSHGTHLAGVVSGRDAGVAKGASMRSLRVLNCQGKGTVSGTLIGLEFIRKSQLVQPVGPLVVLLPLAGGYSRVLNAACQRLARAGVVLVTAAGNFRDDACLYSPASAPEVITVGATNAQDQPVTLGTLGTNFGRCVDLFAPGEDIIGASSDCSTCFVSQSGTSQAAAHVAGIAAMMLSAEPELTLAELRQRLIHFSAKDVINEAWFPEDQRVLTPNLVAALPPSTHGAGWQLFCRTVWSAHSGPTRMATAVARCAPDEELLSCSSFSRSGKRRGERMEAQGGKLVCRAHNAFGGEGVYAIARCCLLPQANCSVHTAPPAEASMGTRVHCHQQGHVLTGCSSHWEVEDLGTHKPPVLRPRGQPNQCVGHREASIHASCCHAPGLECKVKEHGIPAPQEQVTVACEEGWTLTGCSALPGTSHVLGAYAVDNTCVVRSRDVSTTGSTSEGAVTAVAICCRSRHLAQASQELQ
Sequence of human PCSK9 (Q8NBP7 31-152 partner limits assumed): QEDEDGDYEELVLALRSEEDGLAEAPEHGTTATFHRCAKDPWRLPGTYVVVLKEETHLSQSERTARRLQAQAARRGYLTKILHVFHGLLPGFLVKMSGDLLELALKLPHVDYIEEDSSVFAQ
In general terms: Time-resolved FRET reads energy transfer from a long-lived donor to a nearby acceptor.

Regarding “(4S,7S,10S,14R,16aS,20aS)-14-Benzyl-11-(4-chloro-2-(4-(2-((dimethylamino)methyl)-1-methyl-1H-imidazol-5-yl)phenoxy)benzyl)-4-(4-chlorobenzyl)-7-(methoxymethyl)-5,16-dimethyl-10-(3-(3,3,4,4-tetrafluoropyrrolidin-1-yl)propyl)hexadecahydrobenzo[l][1,4,7,11,14]pentaazacyclooctadecine-2,6,9,12,15(3H)-pentaone”, the ring closure, yield after HPLC in data set [1] (DCM, 0.524 mM, 39.0 °C) amounted to 17%.

In data set [2] (from (3S,6S,9S,14S,17R)-1-(4-chloro-2-(4-(2-((dimethylamino)methyl)-1-methyl-1H-imidazol-5-yl)phenoxy)phenyl)-9-(4-chlorobenzyl)-6-(ethoxymethyl)-3,8,14,15,17-pentamethyl-4,7,11,16-tetraoxo-2,5,8,12,15-pentaazanonadecan-19-oic acid hydrochloride, 1.27 mM), `CCOC[C@@H]1NC(=O)[C@H](C)N(Cc2ccc(Cl)cc2Oc2ccc(-c3cnc(CN(C)C)n3C)cc2)C(=O)C[C@@H](C)C(=O)N(C)[C@@H](C)CNC(=O)C[C@H](Cc2ccc(Cl)cc2)N(C)C1=O.O=CO` [Compound 53, (2S,5S,8S,13S,16R)-1-(4-chloro-2-(4-(2-((dimethylamino)methyl)-1-methyl-1H-imidazol-5-yl)phenoxy)benzyl)-8-(4-chlorobenzyl)-5-(ethoxymethyl)-2,7,13,14,16-pentamethyl-1,4,7,11,14-pentaaza cyclooctadecane-3,6,10,15,18-pentaone formate] registered a ring closure, isolated yield of 9%. On human PCSK9, the Max % inhibition was found to be 92.32% and the half-inhibitory concentration (IC50) – broadly, the point on the concentration scale where inhibition reaches its midpoint – was 21.1 nM.

Consider `COC[C@@H]1NC(=O)[C@H](C)N(Cc2ccc(Cl)cc2Oc2ccc(-c3cnc(CN(C)C)n3C)cc2)C(=O)C[C@@H](Cc2cccc(C)n2)C(=O)N(C)[C@H]2CCCC[C@@H]2NC(=O)C[C@H](Cc2ccc(Cl)cc2)N(C)C1=O` [Compound 265, (4S,7S,10S,14R,16aS,20aS)-11-(4-chloro-2-(4-(2-((dimethylamino)methyl)-1-methyl-1H-imidazol-5-yl)phenoxy)benzyl)-4-(4-chlorobenzyl)-7-(methoxymethyl)-5,10,16-trimethyl-14-((6-methylpyridin-2-yl)methyl)hexadecahydrobenzo-[l][1,4,7,11,14]pentaazacyclooctadecine-2,6,9,12,15(3H)-pentaone], for which the ring closure, isolated yield in data set [2] (from (R)-4-(((1S,2S)-2-((S)-3-((S)-2-((S)-2-((4-chloro-2-(4-(2-((dimethylamino)methyl)-1-methyl-1H-imidazol-5-yl)phenoxy)benzyl)amino)propanamido)-3-methoxy-N-methylpropanamido)-4-(4-chlorophenyl)butanamido)cyclohexyl)(methyl)amino)-3-((6-methylpyridin-2-yl)methyl)-4-oxobutanoic acid) was determined as 31.1%. Besides, on human PCSK9, the Max % inhibition was 104.88% and the concentration for half-maximal inhibition (IC50) amounted to 312 nM.

The compound “(2S,5S,8S,13S,16R)-16-benzyl-8-(4-chlorobenzyl)-1-(4-ethyl-2-(4-(1-methyl-2-(pyrrolidin-1-ylmethyl)-1H-imidazol-5-yl)phenoxy)benzyl)-5-(methoxymethyl)-2,7,13,14-tetramethyl-1,4,7,11,14-pentaazacyclooctadecane-3,6,10,15,18-pentaone hydrochloride” yielded a ring closure, yield after HPLC in data set [1] (DCM, 0.777 mM, 40.0 °C) of 47%.

For “(4S,7S,10S,16aS,20aS)-4-(4-chlorobenzyl)-11-(2-(difluoromethoxy)-6-(4-(2-((dimethylamino)methyl)-1-methyl-1H-imidazol-5-yl)phenoxy)benzyl)-7-(methoxymethyl)-5,10,16-trimethylhexadecahydro-benzo[l][1,4,7,11,14]pentaazacyclooctadecine-2,6,9,12,15(3H)-pentaone”, in data set [1] (DCM/NMP 10:1, 0.91 mM, 40.0 °C), the ring closure, yield after HPLC came to 22%.

In turn, `COC[C@@H]1NC(=O)[C@H](C)N(Cc2ccc(Cl)cc2Oc2ccc(-c3cnc(CN(C)C)n3C)cc2)C(=O)C[C@@H](Cc2ccccc2)C(=O)N(C)C2CC2NC(=O)C[C@H](Cc2ccc(Cl)cc2)N(C)C1=O.O=C(O)C(F)(F)F` (mixture of isomers) [Compound 147, (5S,8S,11S,15R)-15-benzyl-12-(4-chloro-2-(4-(2-((dimethylamino)methyl)-1-methyl-1H-imidazol-5-yl)phenoxy)benzyl)-5-(4-chlorobenzyl)-8-(methoxymethyl)-6,11,17-trimethyl-2,6,9,12,17-pentaazabicyclo[16.1.0]nonadecane-3,7,10,13,16-pentaone trifluoroacetate] displayed a ring closure, isolated yield in data set [2] (from (3R)-3-benzyl-4-((2-((S)-3-((S)-2-((S)-2-((4-chloro-2-(4-(2-((dimethylamino)methyl)-1-methyl-1H-imidazol-5-yl)phenoxy)benzyl)amino)propanamido)-3-methoxy-N-methylpropanamido)-4-(4-chlorophenyl)butanamido)cyclopropyl)(methyl)amino)-4-oxobutanoic acid?) of 19%. Also, on human PCSK9, the Max % inhibition is listed as 104.16% and the 50% inhibitory concentration (IC50) is 3.7 nM.
